According to patent US10047105B2, “Gyrase inhibitors” (Merck Sharp & Dohme Corp., priority 2009, dated 2018):
≈ marks a conversion by molar mass, not a printed value.

How the values were obtained:
Format in all cases: cell-based
S. aureus ATCC 13709 = test: MIC, antibacterial potency, S. aureus; details: S. aureus (SA); in µg/mL
E. coli 8 ATCC 25922 = test: MIC, E. coli 8 (wt); details: E. coli 8 (EC8)
S. pneumoniae ATCC 51916 = test: MIC, S. pneumoniae; details: S. pneumoniae (Spn52); in µg/mL

Row | SMILES | MIC, SA (S. aureus ATCC 13709) | MIC EC8 (E. coli 8 ATCC 25922) [µg/mL] | MIC Spn52 (S. pneumoniae ATCC 51916)
1 | CCc1[nH]c2nc(Sc3cnc4cccnc4c3)nc(N3CC[C@@H](N)C3)c2c1Cl.O=C(O)C(F)(F)F.O=C(O)C(F)(F)F [700,795] | <=0.5 | 8 | <=0.5
2 | CCc1[nH]c2nc(Sc3cnc4cccnc4c3)nc(N3C[C@@H](N)[C@@H](C(=O)OC)C3)c2c1Cl [700,873] | 2 | – | 32
3 | CCc1[nH]c2nc(Oc3cccc(C#N)c3)nc(C3CC3)c2c1Cl [700,874] | 2 | – | 8
4 | CCc1[nH]c2nc(Cc3cccnc3)nc(Oc3cccc(C#N)c3)c2c1Cl [700,875] | 32 | – | >32
5 | CCc1[nH]c2nc(Sc3cnc4cccnc4c3)nc(N3CC(C(=O)N4CC(N)C4)C3)c2c1Cl [700,876] | 8 | – | 8
6 | CCc1[nH]c2nc(Oc3cncnc3)nc(N3CC(N)C3)c2c1Br [700,877] | 4 | – | 8
7 | CCc1[nH]c2nc(Oc3cncnc3)nc(Oc3cncc(C#N)c3)c2c1Br [700,878] | <=0.5 | – | <=0.5
8 | CCc1[nH]c2nc(Oc3cnc4ccoc4c3)nc(Oc3cnc4ccoc4c3)c2c1Br [700,883] | <=0.5 | – | <=0.5
9 | CCc1[nH]c2nc(Sc3cnc4nccnc4c3)nc(N3C[C@@H]4[C@H](C3)[C@@]4(N)CN)c2c1Cl [700,884] | 4 | – | 16
10 | CCc1[nH]c2nc(Sc3cnc4cccnc4c3)nc(N3C[C@@H]4[C@H](C3)[C@@]4(N)CN)c2c1Cl [700,885] | 2 | – | 4
11 | CCc1[nH]c2nc(Sc3cnc4nccnc4c3)nc(N3CC4C(C3)C4(CN)NCc3ccccc3)c2c1Cl (stereo not drawn) [700,886] | >8 | – | 8
12 | CCc1[nH]c2nc(Sc3cnc4cccnc4c3)nc(N3CC4C(C3)C4(CN)NCc3ccccc3)c2c1Cl (stereo not drawn) [700,887] | 8 | – | 4
13 | CCc1[nH]c2nc(Sc3cnc4cccnc4c3)nc(N3CCC(N)(C(=O)N[C@H]4CCOC4=O)C3)c2c1Cl (stereo partly drawn) [700,888] | >64 | – | >64
14 | CCc1[nH]c2nc(Sc3cnc4cccnc4c3)nc(N3CCC(N)(C(=O)N[C@H](CO)C(=O)OC)C3)c2c1Cl (stereo partly drawn) [700,889] | 32 | – | 32
15 | CCc1[nH]c2nc(Sc3cnc4cccnc4c3)nc(N3C[C@H](C4CCCCC4)[C@@H](N)C3)c2c1Cl [700,890] | 2 | – | 4
16 | CCc1[nH]c2nc(Sc3cnc4cccnc4c3)nc(N3CCC(N)(C(=O)N[C@H](CO)C(=O)O)C3)c2c1Cl (stereo partly drawn) [700,891] | >64 | – | >64
17 | CCc1[nH]c2nc(Oc3cccc(C#N)c3)nc(/C=C\c3cccc(OC)c3)c2c1Cl [700,892] | >64 | – | >64
18 | CCc1[nH]c2nc(Oc3cccc(C#N)c3)nc(C(C)=O)c2c1Cl [700,893] | 4 | – | 8

Row | SMILES | MIC, SA (S. aureus ATCC 13709) | MIC EC8 (E. coli 8 ATCC 25922) [µg/mL] | MIC Spn52 (S. pneumoniae ATCC 51916)
19 | CCc1[nH]c2nc(Sc3cnc4c(NCC5OCCO5)nc(C)nc4c3)nc(N3CC[C@@H](N)C3)c2c1Cl [700,894] | 32 | – | 8
20 | CCc1[nH]c2nc(Oc3cncnc3)nc(Oc3cncc(C#N)c3)c2c1Cl [700,898] | <=0.5 | – | 2
21 | CCc1[nH]c2nc(Oc3cncc(C#N)c3)nc(Oc3cncnc3)c2c1Br [700,899] | <=0.5 | – | <=0.5
22 | CCc1[nH]c2nc(Sc3cnc4nccnc4c3)nc(N3CCC4(CCNCC4)C3)c2c1Cl [700,900] | 8 | – | 8
23 | CCc1[nH]c2nc(Sc3ccc4nccnc4c3)nc(N3CCC4(CCNCC4)C3)c2c1Cl [700,901] | 8 | – | 4
24 | CCc1[nH]c2nc(Sc3ccc4c(N5CC[C@@H](N)C5)ncnc4c3)nc(N3CC[C@@H](N)C3)c2c1Cl [700,903] | 32 | – | 64
25 | CCc1[nH]c2nc(Sc3ccc4c(N5CC(CN)C5)ncnc4c3)nc(N3CC[C@@H](N)C3)c2c1Cl [700,904] | 32 | – | >64
26 | CCc1[nH]c2nc(Sc3cnc4c(=N)n(CC5OCCO5)c(C)nc4c3)nc(N3CC[C@@H](N)C3)c2c1Cl [700,906] | 2 | > 64 | 4
27 | CCc1[nH]c2nc(Oc3cncnc3)nc(N3CC(N)C3)c2c1Cl [700,907] | 8 | 64 (≈ 185 µM) | 16
28 | CCc1[nH]c2nc(Oc3cncnc3)nc(N3CCCC3CO)c2c1Cl (stereo not drawn) [700,908] | 8 | > 64 | 16
29 | CCc1[nH]c2nc(Oc3cncnc3)nc(N3CC(Cc4cncnc4)C3)c2c1Cl [700,909] | 1 | > 64 | 4
30 | CCc1[nH]c2nc(Oc3cncnc3)nc(N3CCC(N)C3)c2c1Cl (stereo not drawn) [700,910] | >64 | > 64 | >64
31 | CCc1[nH]c2nc(Oc3cncnc3)nc(N3CC4C(N)C4C3)c2c1Cl (stereo not drawn) [700,911] | 1 | > 32 | 2
32 | CCc1[nH]c2nc(Sc3ccc4c(Oc5cccc(CNC)c5)cc(C)nc4c3)nc(N3CC[C@@H](N)C3)c2c1Cl [700,912] | 8 | 32 (≈ 55.7 µM) | >64
33 | CCc1[nH]c2nc(Sc3ccc4c(-n5ccnc5)cc(C)nc4c3)nc(N3CC[C@@H](N)C3)c2c1Cl [700,913] | 2 | > 64 | 2
34 | CCc1[nH]c2nc(Sc3ccc4nc(C)nc(N5CC(CN)C5)c4c3)nc(N3CC[C@@H](N)C3)c2c1Cl [700,914] | 64 | 32 (≈ 61.1 µM) | >64
35 | CCc1[nH]c2nc(Sc3ccc4nc(C)nc(N5CC6CNC6C5)c4c3)nc(N3CC[C@@H](N)C3)c2c1Cl (stereo partly drawn) [700,916] | 64 | > 64 | >64
36 | CCc1[nH]c2nc(Sc3ccc4c(N5CC(CN)C5)cc(C(F)(F)F)nc4c3)nc(N3CC[C@@H](N)C3)c2c1Cl [700,917] | 4 | 8 (≈ 13.9 µM) | 4
